{"source": "patent US20070010581A1", "about": "“Use of 2,5-dihydroxybenzenesulfonic compounds for the treatment of disorders based on an impairment of no production and/or of regulation of edhf function” (priority 2002, published 2007)", "key": {"[1]": {"test_system": "human penile resistance arteries (HPRA)", "experiment": "Vascular reactivity of resistance penile arteries (myograph, isometric tension)", "method": "Penile small arteries, helicine arteries (lumen diameter 150-400 μm), which are the terminal branches of deep penile arteries, were dissected by carefully removing the adhering trabecular tissue, and arterial ring segments (of 2 mm length) were subsequently mounted on two 40 μm wires on microvascular double Halpern-Mulvany myographs (J.P. Trading, Aarhus, Denmark) for isometric tension recordings. The vascular segments were allowed to equilibrate for 30 min in physiological salt solution (PSS) of the following composition (each given in mM): 119 NaCl, 4.6 KCl; 1.5 CaCl2, 1.2 MgCl2, 24.9 NaHCO3, 11 Glucose, 1,2 KH2PO4, 0.027 EDTA in water at 37° C., continuously bubbled with a 95% O2/5% CO2 mixture to maintain a pH of 7.4. Passive tension and internal circumference of the vascular segments when relaxed in situ under a transmural pressure of […] (L100) were determined. The vascular segments were then set to an internal circumference eqivalent to 90% of L100, at which the force development was dose to maximal as described in Mulvany M J, Halpem W., “Contractile properties of small resistance arteries in spontaneously hypertensive and normotensive rats”, Circ. Res., 41, 19-26, 1977. The respective literature description is incorporated by reference and is part of the disclosure. The preparations were then exposed to 125 mM K^+ (KPSS, equimolar substitution of NaCl for KCl in PSS) and the contractile response was measured. The arteries were contracted with 1 μm norepinephrine (approximately 80% of KPSS induced contraction) and relaxation responses were evaluated by cumulative additions of compounds to the chambers.\nRelaxation responses are expressed as percentage of total relaxation (loss in tone) induced by the addition of 0.1 mM papaverine HCl to the chambers at the end of the experiment. All data are expressed as mean±standard error. Complete concentration-response or frequency-response curves were obtained and compared by a two-factor analysis of variance (ANOVA) statistical test using StatView sotfware for Apple computers. Erectile responses were determined by measuring the area under the curve (AUC) of the intracavemosal pressure increases to rat cavernosal nerve stimulation normalized by mean arterial pressure values. The complete frequency-response curves were compared by a two-factor ANOVA test."}, "[2]": {"test_system": "erectile responses (intracavernosal pressure) to cavernosal nerve stimulation", "experiment": "Erectile responses to cavernosal nerve stimulation in anesthetized rats", "type": "in vivo, rat", "details": "intravenous 10 mg/kg, stimulation 60 min after administration", "method": "Male Sprague-Dawley rats were anesthetized with ketamine (60 mg/kg). The surgical procedure consisted of dissection and isolation of the right cavernous nerve through an abdominal midline incision and exposure of penile crura through a transverse perineal incision. Intracavemosal pressure (ICP) measurements were accomplished by insertion into the right crus of a 23-gauge needle connected to a disposable pressure transducer (Abbott, Sligo, Ireland) and a data acquisition system (ADInstruments, Castle Hill, Australia). Left carotid artery and right external jugular vein were catheterized for constant blood pressure measurement and saline or drug infusion, respectively. Electrical stimulation was applied by a delicate platinum bipolar hook electrode connected to a stimulator and current amplifier (Cibertec, Madrid, Spain). Parameters of electrical stimulation consisted of pulses with a duration of 1 ms and 1.5 mA of current intensity for 1 minute. […]\nRelaxation responses are expressed as percentage of total relaxation (loss in tone) induced by the addition of 0.1 mM papaverine HCl to the chambers at the end of the experiment. All data are expressed as mean±standard error. […] Erectile responses were determined by measuring the area under the curve (AUC) of the intracavemosal pressure increases to rat cavernosal nerve stimulation normalized by mean arterial pressure values. […]"}}}
{"molecule": "O=S(=O)(O)c1cc(O)ccc1O", "note": "[calcium dobesilate, calcium dihydroxy-2,5 benzenesulfonate]", "values": [{"measurement": "effect on ACh-induced relaxation of HPRA", "setting": "[1]; calcium dobesilate 10 μM", "value": "markedly potentiated"}, {"measurement": "potentiation of ACh-induced relaxation of HPRA under combined inhibition of NOS and COX", "setting": "[1]; calcium dobesilate 10 μM, combined inhibition of NOS and COX", "value": "not significantly affected"}, {"measurement": "potentiation of ACh-induced relaxation of HPRA at high potassium concentration", "setting": "[1]; calcium dobesilate 10 μM, high potassium concentration (35 mM)", "value": "abolished"}, {"measurement": "potentiating effects on ACh-induced relaxation of HPRA with APA and CTX", "setting": "[1]; combination of APA (100 nM) and CTX (100 nM)", "value": "abolished the potentiating effects"}, {"measurement": "potentiating effects on ACh-induced relaxation of HPRA resistant to NOS and COX inhibition, with miconazole", "setting": "[1]; miconazole (0.3 mM)", "value": "significantly reduced the potentiating effects"}, {"measurement": "erectile responses to cavernosal nerve stimulation", "setting": "[2]", "value": "significantly enhanced the erectile responses"}]}
